Where a name gives a salt, the structure may show the parent alone. Read-outs that look alike come from different tables or passages of the source.
Key:
hNav1.7 = target: T1, hNav1.7 (Homo sapiens, UniProt Q15858); assay: Tritiated compound binding (LBA) to membranes from cells expressing hNav1.7 and the β1 subunit, competitive binding; details: competitive binding vs 100 pM [3H]compound, 18 h, room temperature, membranes with hNav1.7 and β1 subunit
T1 construct: expressed in transfected cells
How it was run: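 Membranes from cells expressing hNav1.7 with β1 were incubated 18 h at room temperature with 100 pM tritiated formula (I) compound and increasing test compound, in 100 mM NaCl, 20 mM Tris HCl pH 7.4, 0.01% BSA.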

human NaV1.7 = target: T2, human NaV1.7 (Homo sapiens, UniProt Q15858); assay: Patch voltage clamp electrophysiology assay (EP), NaV1.7; assay type: cell-based; details: HEK-293 cells stably expressing NaV1.7 with β1 subunit; whole-cell patch clamp, membrane potential −60 mV (inactivated state)
T2 construct: permanently transfected with an expression vector containing the full-length cDNA coding for the desired human sodium channel α-subunit; expressed in transfected cells; host or cells: HEK-293
How it was run: (§1)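 HEK-293 cells stably expressing human α-subunit with β1; whole-cell patch clamp (PatchXpress or manual), ambient temperature, pH 7.4 external NaCl, CsF internal. Held at −60 mV (full inactivation), stepped to −150 mV for 20 ms, then test pulse; percent current decrease after compound wash-on taken as block.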

NaV1.5 = target: T3, NaV1.5 (Homo sapiens, UniProt Q14524); assay: Patch voltage clamp electrophysiology assay (EP), NaV1.5; assay type: cell-based; details: HEK-293 cells stably expressing NaV1.5 with β1 subunit, whole-cell patch clamp, membrane potential −60 mV (inactivated state)
T3 construct: permanently transfected with an expression vector containing the full-length cDNA coding for the desired human sodium channel α-subunit; expressed in transfected cells; host or cells: HEK-293
How it was run: as §1

[1] = human, HEK-293 cells stably expressing human NaV1.5 with β1 subunit, pH 7.4

T3 sequence (Q14524 whole entry): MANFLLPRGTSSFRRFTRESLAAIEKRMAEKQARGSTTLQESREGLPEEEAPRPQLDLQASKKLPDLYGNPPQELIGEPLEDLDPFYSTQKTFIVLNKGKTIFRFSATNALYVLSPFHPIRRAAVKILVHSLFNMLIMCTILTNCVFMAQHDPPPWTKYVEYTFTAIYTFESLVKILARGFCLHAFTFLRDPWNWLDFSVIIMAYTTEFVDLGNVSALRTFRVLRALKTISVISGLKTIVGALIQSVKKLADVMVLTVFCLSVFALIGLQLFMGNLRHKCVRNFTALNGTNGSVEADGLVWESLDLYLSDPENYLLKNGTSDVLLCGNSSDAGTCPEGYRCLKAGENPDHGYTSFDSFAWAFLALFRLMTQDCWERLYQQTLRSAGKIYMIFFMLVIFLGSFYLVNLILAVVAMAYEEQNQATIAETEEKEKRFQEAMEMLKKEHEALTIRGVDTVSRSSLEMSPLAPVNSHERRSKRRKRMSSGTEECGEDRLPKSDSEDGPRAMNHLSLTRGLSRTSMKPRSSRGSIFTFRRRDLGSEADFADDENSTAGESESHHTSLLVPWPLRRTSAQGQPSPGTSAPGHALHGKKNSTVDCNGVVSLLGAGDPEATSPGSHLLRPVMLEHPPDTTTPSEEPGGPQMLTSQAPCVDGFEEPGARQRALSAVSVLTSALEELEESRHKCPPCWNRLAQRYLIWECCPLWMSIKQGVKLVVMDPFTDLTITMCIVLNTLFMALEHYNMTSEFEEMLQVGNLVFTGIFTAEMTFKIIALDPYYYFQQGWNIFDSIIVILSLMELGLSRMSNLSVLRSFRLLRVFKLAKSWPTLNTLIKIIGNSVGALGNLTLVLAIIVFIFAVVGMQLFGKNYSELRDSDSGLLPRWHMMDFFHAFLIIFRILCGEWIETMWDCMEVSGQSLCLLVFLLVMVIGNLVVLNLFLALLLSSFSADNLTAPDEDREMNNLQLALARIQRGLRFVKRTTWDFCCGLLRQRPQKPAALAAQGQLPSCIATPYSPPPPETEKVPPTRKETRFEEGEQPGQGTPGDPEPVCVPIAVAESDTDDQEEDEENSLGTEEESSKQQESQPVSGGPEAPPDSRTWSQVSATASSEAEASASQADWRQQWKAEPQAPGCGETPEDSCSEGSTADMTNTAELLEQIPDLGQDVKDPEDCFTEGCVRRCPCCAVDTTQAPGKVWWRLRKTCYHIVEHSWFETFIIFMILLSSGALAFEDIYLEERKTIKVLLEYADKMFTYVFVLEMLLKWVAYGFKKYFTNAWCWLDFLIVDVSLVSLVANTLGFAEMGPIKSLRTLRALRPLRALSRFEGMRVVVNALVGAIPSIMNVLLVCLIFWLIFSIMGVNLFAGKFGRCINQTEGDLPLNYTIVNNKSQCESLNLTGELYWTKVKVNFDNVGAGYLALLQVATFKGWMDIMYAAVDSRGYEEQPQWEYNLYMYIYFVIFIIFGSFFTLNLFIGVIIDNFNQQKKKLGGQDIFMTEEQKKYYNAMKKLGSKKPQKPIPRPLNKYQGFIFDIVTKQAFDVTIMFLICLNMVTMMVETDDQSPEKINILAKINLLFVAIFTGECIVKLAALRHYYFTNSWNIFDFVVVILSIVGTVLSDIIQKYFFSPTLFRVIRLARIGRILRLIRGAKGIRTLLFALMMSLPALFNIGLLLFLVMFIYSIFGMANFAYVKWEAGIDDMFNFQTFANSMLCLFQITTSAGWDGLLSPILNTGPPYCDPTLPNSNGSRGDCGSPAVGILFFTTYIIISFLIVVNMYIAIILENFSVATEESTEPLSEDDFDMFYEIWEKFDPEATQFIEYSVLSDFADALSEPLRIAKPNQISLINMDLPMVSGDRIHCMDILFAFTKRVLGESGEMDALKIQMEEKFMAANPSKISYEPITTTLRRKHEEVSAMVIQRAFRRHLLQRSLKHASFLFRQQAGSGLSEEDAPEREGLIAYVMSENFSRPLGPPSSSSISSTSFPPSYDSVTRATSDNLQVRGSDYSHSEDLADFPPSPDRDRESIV
T2 sequence (Q15858 1-1977 isoform Q15858-3): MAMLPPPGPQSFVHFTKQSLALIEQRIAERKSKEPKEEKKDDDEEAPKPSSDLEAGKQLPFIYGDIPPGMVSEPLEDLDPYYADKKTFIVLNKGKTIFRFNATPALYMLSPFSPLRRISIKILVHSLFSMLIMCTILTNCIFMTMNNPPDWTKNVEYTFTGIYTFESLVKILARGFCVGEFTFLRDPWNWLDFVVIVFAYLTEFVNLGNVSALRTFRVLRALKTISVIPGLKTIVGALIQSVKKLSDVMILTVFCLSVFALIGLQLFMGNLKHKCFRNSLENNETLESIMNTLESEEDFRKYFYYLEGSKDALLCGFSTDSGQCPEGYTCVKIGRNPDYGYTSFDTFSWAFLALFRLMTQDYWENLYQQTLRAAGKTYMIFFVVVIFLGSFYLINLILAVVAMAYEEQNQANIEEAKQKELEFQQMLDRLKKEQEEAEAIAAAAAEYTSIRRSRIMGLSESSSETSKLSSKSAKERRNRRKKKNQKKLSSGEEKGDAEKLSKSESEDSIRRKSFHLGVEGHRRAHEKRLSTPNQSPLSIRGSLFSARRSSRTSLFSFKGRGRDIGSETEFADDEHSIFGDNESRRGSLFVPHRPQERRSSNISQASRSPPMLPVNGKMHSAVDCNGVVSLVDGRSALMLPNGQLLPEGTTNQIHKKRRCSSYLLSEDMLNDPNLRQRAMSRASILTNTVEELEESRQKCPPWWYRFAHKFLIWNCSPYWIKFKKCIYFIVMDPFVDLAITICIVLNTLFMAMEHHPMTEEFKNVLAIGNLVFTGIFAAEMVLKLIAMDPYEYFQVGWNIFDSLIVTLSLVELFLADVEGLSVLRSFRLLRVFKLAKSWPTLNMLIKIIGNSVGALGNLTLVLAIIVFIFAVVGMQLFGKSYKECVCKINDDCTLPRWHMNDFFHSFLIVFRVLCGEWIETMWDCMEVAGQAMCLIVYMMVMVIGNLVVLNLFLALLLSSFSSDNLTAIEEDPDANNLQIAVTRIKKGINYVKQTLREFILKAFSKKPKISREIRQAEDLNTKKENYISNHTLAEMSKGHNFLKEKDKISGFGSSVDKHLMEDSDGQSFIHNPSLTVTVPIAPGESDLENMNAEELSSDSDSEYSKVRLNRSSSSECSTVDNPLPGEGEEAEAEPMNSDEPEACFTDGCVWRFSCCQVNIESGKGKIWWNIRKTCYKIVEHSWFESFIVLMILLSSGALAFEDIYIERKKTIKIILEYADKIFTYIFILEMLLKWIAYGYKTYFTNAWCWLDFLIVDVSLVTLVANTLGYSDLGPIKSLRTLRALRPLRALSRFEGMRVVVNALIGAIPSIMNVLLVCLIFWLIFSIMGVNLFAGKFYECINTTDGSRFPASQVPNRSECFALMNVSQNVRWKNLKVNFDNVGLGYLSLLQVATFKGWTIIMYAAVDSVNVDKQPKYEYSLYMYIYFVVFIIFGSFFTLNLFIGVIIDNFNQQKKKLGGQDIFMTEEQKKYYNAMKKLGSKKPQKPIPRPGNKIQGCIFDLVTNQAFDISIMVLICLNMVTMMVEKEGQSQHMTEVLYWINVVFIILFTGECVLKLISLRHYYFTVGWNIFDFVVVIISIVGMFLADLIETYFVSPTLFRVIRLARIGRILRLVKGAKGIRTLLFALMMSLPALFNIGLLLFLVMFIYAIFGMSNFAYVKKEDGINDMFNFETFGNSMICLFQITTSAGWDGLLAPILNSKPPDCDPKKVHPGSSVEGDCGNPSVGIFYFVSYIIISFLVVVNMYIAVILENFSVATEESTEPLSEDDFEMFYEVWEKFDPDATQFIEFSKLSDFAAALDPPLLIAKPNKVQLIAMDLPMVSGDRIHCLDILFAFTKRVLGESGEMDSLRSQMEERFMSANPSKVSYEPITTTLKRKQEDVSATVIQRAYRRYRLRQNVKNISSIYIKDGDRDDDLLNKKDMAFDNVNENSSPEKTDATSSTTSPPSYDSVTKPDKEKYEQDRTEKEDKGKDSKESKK
T2 sequence (Q07699 19-218 partner): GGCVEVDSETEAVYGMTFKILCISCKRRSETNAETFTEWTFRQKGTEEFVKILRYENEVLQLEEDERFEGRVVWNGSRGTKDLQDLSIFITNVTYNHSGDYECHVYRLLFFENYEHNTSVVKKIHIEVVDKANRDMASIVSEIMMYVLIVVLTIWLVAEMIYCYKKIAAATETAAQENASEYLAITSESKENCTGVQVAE
T1 sequence (Q15858 1-1977 isoform Q15858-3): as the sequence (Q15858 1-1977 isoform Q15858-3) above
T1 sequence (Q07699 19-218 partner): as the sequence (Q07699 19-218 partner) above

SMILES | IC50 (hNav1.7) [nM] | IC50 (human NaV1.7) [nM] | IC50 (NaV1.5; read-out: Nav1.5) [µM] | IC50 (NaV1.5; [1]) [µM]
O=C(O)C1CC=NN1C(=O)c1cc(C2CC2)c(OCC23CC4CC(CC(C4)C2)C3)cc1F (stereo not drawn) [Example 96, 1-(4-(adamantan-1-ylmethoxy)-5-cyclopropyl-2-fluorobenzoyl)-4,5-dihydro-1H-pyrazole-5-carboxylic acid] | 380 | 1500 | – | ≥ 30
O=C(O)[C@@H]1CCCN1C(=O)c1cc(C2CC2)c(OCC2CCN([C@H](c3cc(Cl)cc(Cl)c3)C(F)(F)F)CC2)cc1F (single isomer, unassigned) [Example 123a] | 48 | 490 | 7.1 | –
O=C(O)[C@@H]1C[C@@H](F)CN1C(=O)c1cc(C2CC2)c(OCC2CCN(Cc3cc(F)c(Cl)cc3Cl)CC2)cc1F [Example 108, (2S,4R)-1-(5-cyclopropyl-4-((1-(2,4-dichloro-5-fluorobenzyl)piperidin-4-yl)methoxy)-2-fluorobenzoyl)-4-fluoropyrrolidine-2-carboxylic acid] | 17 | 220 | 9.6 | –
O=C(O)[C@@H]1CCCN1C(=O)c1cc(C2CC2)c(OCC23CCCCC2C3)cc1F (stereo partly drawn) [Example 69, (4-(bicyclo[4.1.0]heptan-1-ylmethoxy)-5-cyclopropyl-2-fluorobenzoyl)-L-proline] | 170 | 520 | – | ≥ 30
C[C@H](c1cc(Cl)cc(Cl)c1)N1CCC[C@H](COc2cc(F)c(C(=O)N3CCC[C@H]3C(=O)O)cc2C2CC2)C1 (single isomer, unassigned) [Example 73a] | 360 | 2200 | 12 | –
O=C(N[C@H](C(=O)O)C1CC1)c1cc(C2CC2)c(OCC2CCN(C(c3cc(Cl)cc(Cl)c3)C(F)(F)F)CC2)cc1F (stereo partly drawn) [Example 53, (2S)-2-cyclopropyl-2-(5-cyclopropyl-4-((1-(1-(3,5-dichlorophenyl)-2,2,2-trifluoroethyl)piperidin-4-yl)methoxy)-2-fluorobenzamido)acetic acid] | 17 | 2000 | 14 | –
O=C(O)C1CCN(C(=O)c2cc(C3CC3)c(OCC34CC5CC(CC(C5)C3)C4)cc2F)C1 (stereo not drawn) [Example 65, 1-(4-(adamantan-1-ylmethoxy)-5-cyclopropyl-2-fluorobenzoyl)pyrrolidine-3-carboxylic acid] | ≥ 10000 | 5300 | 23 | –
CCc1cc(C(=O)N2CCC[C@H]2C(=O)O)c(F)cc1OCC12CC3CC(CC(C3)C1)C2 [Example 89, (S)-1-(4-(adamantan-1-ylmethoxy)-5-ethyl-2-fluorobenzoyl)pyrrolidine-2-carboxylic acid] | 130 | 790 | 17 | –
CC1(C)[C@H]2CC[C@H](COc3cc(F)c(C(=O)N4CCC[C@H]4C(=O)O)cc3C3CC3)[C@@H]1C2 [Example 90, (S)-1-(5-cyclopropyl-4-(((1S, 2S, 5S)-6,6-dimethylbicyclo[3.1.1]heptan-2-yl)methoxy)-2-fluorobenzoyl)pyrrolidine-2-carboxylic acid] | 21 | 160 | 13 | –

Further lines, with some results ahead:

IC50 (hNav1.7) [nM] | IC50 (human NaV1.7) [nM] | SMILES | IC50 (NaV1.5; read-out: Nav1.5) [µM] | IC50 (NaV1.5; [1]) [µM]
180 | 1500 | O=C(O)[C@@H]1[C@H]2CC[C@H](C2)N1C(=O)c1cc(C2CC2)c(OCC23CC4CC(CC(C4)C2)C3)cc1F [Example 146, (1S,2S,4R)-3-[4-(1-adamantylmethoxy)-5-cyclopropyl-2-fluoro-benzoyl]-3-azabicyclo[2.2.1]heptane-2-carboxylic acid] | 8.4 | –
180 | 1300 | CC[C@@H]1CCN(C(=O)c2cc(C3CC3)c(OCC34CC5CC(CC(C5)C3)C4)cc2F)[C@H]1C(=O)O [Example 168b, (2R,3R)-1-[4-(1-adamantylmethoxy)-5-cyclopropyl-2-fluoro-benzoyl]-3-ethyl-pyrrolidine-2-carboxylic acid] | 8.2 | –
390 | 2600 | C[C@]1(COc2cc(F)c(C(=O)N3CCC[C@H]3C(=O)O)cc2C2CC2)CCN(c2cc(C(F)(F)F)c(Cl)cn2)C1 [Example 135, (S)-1-(4-(((S)-1-(5-chloro-4-(trifluoromethyl)pyridin-2-yl)-3-methylpyrrolidin-3-yl)methoxy)-5-cyclopropyl-2-fluorobenzoyl)pyrrolidine-2-carboxylic acid] | – | ≥ 30
22 | 640 | O=C(O)[C@@H]1CCCN1C(=O)c1cc(C2CCC2)c(OCC23CC4CC(CC(C4)C2)C3)cc1F [Example 194, (S)-1-(4-(adamantan-1-ylmethoxy)-5-cyclobutyl-2-fluorobenzoyl)pyrrolidine-2-carboxylic acid trifluoroacetate] | 10 | –
1900 | 4400 | CC1(C)[C@@H]2[C@@H](C(=O)O)N(C(=O)c3cc(C4CC4)c(OCC45CC6CC(CC(C6)C4)C5)cc3F)C[C@@H]21 [Example 202, (1R,2S,5S)-3-(4-(adamantan-1-ylmethoxy)-5-cyclopropyl-2-fluorobenzoyl)-6,6-dimethyl-3-azabicyclo[3.1.0]hexane-2-carboxylic acid] | 16 | –
2700 | 19000 | O=C(O)[C@@H]1CCCN1C(=O)c1cc(Cl)c(Oc2cnc(OCC(F)(F)F)c(Cl)c2)cc1F [Example 191, (S)-1-(5-Chloro-4-((5-chloro-6-(2,2,2-trifluoroethoxy)pyridin-3-yl)oxy)-2-fluorobenzoyl)pyrrolidine-2-carboxylic acid trifluoroacetate] | – | ≥ 30
29 | 65 | C[C@H]1OCN(C(=O)c2cc(C3CC3)c(OCC3CCN(Cc4cc(C(F)(F)F)cc(Cl)c4F)CC3)cc2F)[C@@H]1C(=O)O [Example 227, (4S,5R)-3-(4-((1-(3-chloro-2-fluoro-5-(trifluoromethyl)benzyl)piperidin-4-yl)methoxy)-5-cyclopropyl-2-fluorobenzoyl)-5-methyloxazolidine-4-carboxylic acid] | 16 | –
110 | 1100 | C[C@@]1(COc2cc(F)c(C(=O)N3CCC[C@H]3C(=O)O)cc2C2CC2)CCN(c2cc(C(F)(F)F)c(Cl)cn2)C1 [Example 136, (S)-1-(4-(((R)-1-(5-chloro-4-(trifluoromethyl)pyridin-2-yl)-3-methylpyrrolidin-3-yl)methoxy)-5-cyclopropyl-2-fluorobenzoyl)pyrrolidine-2-carboxylic acid] | – | ≥ 30
170 | 2200 | CO[C@H]1CN(C(=O)c2cc(C3CC3)c(OCC34CC5CC(CC(C5)C3)C4)cc2F)[C@H](C(=O)O)C1C (stereo partly drawn) [Example 205, (2S,4R)-1-(4-(adamantan-1-ylmethoxy)-5-cyclopropyl-2-fluorobenzoyl)-4-methoxy-3-methylpyrrolidine-2-carboxylic acid] | 25 | –
290 | 3500 | O=C(c1cc(C2CC2)c(OCC23CC4CC(CC(C4)C2)C3)cc1F)N1CCC2CC21C(=O)O (stereo not drawn) [Example 212, 2-(4-((Adamantan-1-yl)methoxy)-5-cyclopropyl-2-fluorobenzoyl)-2-azabicyclo[3.1.0]hexane-1 carboxylicacid] | 17 | –
